The text below walks through data of patent US7592366B2, “Therapeutic compounds” (Allergan, Inc., priority 2006, dated 2009).

One test deals with T1, hTP (Homo sapiens, UniProt P21731).
T1 construct: expressed in transfected cells; host or cells: HEK-293(EBNA)
T1 sequence (P21731 1-343): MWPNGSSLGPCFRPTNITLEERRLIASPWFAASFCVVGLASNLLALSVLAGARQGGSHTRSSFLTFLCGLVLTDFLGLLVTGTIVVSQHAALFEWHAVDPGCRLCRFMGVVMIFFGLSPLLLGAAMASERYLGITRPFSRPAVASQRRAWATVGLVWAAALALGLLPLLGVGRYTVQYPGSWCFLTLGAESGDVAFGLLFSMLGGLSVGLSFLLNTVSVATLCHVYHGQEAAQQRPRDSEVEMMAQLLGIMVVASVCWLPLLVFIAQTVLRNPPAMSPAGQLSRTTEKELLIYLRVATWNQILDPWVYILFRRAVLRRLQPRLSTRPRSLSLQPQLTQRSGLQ
The test can be described thus: FLIPR calcium signal, hTP. Format: cell-based. Particulars: read-out: Other Receptors (EC50 in nM) hTP. Here is the method:
(§1) HEK-293(EBNA) cells, stably expressing one type or subtype of recombinant human prostaglandin receptors (prostaglandin receptors expressed: hDP/Gqs5; hEP1; hEP2/Gqs5; hEP3A/Gqi5; hEP4/Gqs5; hFP; hIP; hTP), were cultured in 100 mm culture dishes in high-glucose DMEM medium containing 10% fetal bovine serum, 2 mM l-glutamine, 250 μg/ml geneticin (G418) and 200 μg/ml hygromycin B as selection markers, and 100 units/ml penicillin G, 100 μg/ml streptomycin and 0.25 μg/ml amphotericin B.
Cells were seeded at a density of 5×10^4 cells per well in Biocoat® Poly-D-lysine-coated black-wall, clear-bottom 96-well plates (Becton-Dickinson) and allowed to attach overnight in an incubator at 37° C. Cells were then washed two times with HBSS-HEPES buffer (Hanks Balanced Salt Solution without bicarbonate and phenol red, 20 mM HEPES, pH 7.4) using a Denley Cellwash plate washer (Labsystems). After 45 minutes of dye-loading in the dark, using the calcium-sensitive dye Fluo-4 […] at a final concentration of 2 μM, plates were washed four times with HBSS-HEPES buffer to remove excess dye leaving 100 μl in each well. Plates were re-equilibrated to 37° C. for a few minutes.
Cells were excited with an Argon laser at 488 nm, and emission was measured through a 510-570 nm bandwidth emission filter (FLIPR™, Molecular Devices, Sunnyvale, Calif.). Drug solution was added in a 50 μl volume to each well to give the desired final concentration. The peak increase in fluorescence intensity was recorded for each well. On each plate, four wells each served as negative (HBSS-HEPES buffer) and positive controls (standard agonists: BW245C (hDP); PGE2 (hEP1; hEP2/Gqs5; hEP3A/Gqi5; hEP4/Gqs5); PGF2α (hFP); carbacyclin (hIP); U-46619 (hTP), depending on receptor). The peak fluorescence change in each drug-containing well was then expressed relative to the controls.
Compounds were tested in a high-throughput (HTS) or concentration-response (CoRe) format. […]

The next test addresses T2, hFP (Homo sapiens, UniProt P43088).
T2 construct: expressed in transfected cells; host or cells: HEK-293(EBNA)
The test can be described thus: FLIPR calcium signal, hFP. Format: cell-based. The conditions noted are these: read-out: Other Receptors (EC50 in nM) hFP. Here is the method: as §1
Cells were seeded at a density of 5×10^4 cells per well in Biocoat® Poly-D-lysine-coated black-wall, clear-bottom 96-well plates (Becton-Dickinson) and allowed to attach overnight in an incubator at 37° C. Cells were then washed two times with HBSS-HEPES buffer (Hanks Balanced Salt Solution without bicarbonate and phenol red, 20 mM HEPES, pH 7.4) using a Denley Cellwash plate washer (Labsystems). […]
Cells were excited with an Argon laser at 488 nm, and emission was measured through a 510-570 nm bandwidth emission filter (FLIPR™, Molecular Devices, Sunnyvale, Calif.). […] The peak increase in fluorescence intensity was recorded for each well. […] The peak fluorescence change in each drug-containing well was then expressed relative to the controls. […]

The structures appear in SMILES notation.

T2 sequence (P43088 whole entry): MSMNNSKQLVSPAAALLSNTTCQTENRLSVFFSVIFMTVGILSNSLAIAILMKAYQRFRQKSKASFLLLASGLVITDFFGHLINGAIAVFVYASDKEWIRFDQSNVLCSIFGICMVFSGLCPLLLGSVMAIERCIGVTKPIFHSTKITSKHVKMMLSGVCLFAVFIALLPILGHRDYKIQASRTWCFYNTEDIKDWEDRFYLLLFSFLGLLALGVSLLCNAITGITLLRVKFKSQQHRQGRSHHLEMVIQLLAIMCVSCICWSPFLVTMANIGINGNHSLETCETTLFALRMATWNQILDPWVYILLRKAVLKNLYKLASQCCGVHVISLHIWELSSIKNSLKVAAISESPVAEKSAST

For `O=C(O)c1ccc(CCC[C@@H]2[C@@H](CCc3cc(F)cc(F)c3)[C@H](O)C[C@H]2Cl)s1` [11d, 5-(3-((1R,2R,3R,5R)-5-chloro-2-(3,5-difluorophenethyl)-3-hydroxycyclopentyl)propyl)thiophene-2-carboxylic acid], on hTP, the concentration for a half-maximal effect (EC50) came out at 64 nM.
As to `O=C(O)c1ccc(CCC[C@@H]2[C@@H](CCc3cc(Cl)cc(Cl)c3)[C@@H](O)C[C@H]2Cl)s1` [compound 17, 5-(3-((1R,2R,3S,5R)-5-chloro-2-(3,5-dichlorophenethyl)-3-hydroxycyclopenty)propyl)thiophene-2-carboxylic acid], at hFP, the EC50 was greater than 10000 nM.

The EC50 is the midpoint of the concentration-response curve.
